Our source for the IC50 values is article PMC8725944, “Design and synthesis of chromone-nitrogen mustard derivatives and evaluation of anti-breast cancer activity” (Journal of Enzyme Inhibition and Medicinal Chemistry, 2021).

A value given as a limit tells only on which side of the number the result lay.

This experiment relates to TNBC cell line MDA-MB-231. Nature of the experiment: CCK-8 assay, antiproliferative activity against MDA-MB-231. The conditions noted are these: Homo sapiens, MDA-MB-231, 72 h, read-out: IC50 MDA-MB-231.
Usually IC50 stands for the concentration at which inhibition is half-maximal. For the molecule `COc1cccc2c1C(=O)c1c(O)c3c(c(O)c1C2=O)C[C@@](O)(C(=O)CO)C[C@@H]3O[C@H]1C[C@H](N)[C@H](O)[C@H](C)O1` [Adriamycin, reference compound], the IC50 amounted to 2.94 ± 0.12 µM. Take `N[C@@H](Cc1ccc(N(CCCl)CCCl)cc1)C(=O)O` [Compound 5, melphalan, reference compound]: the IC50 was more than 20 µM. Turning to `O=CN[C@@H](Cc1ccc(N(CCCl)CCCl)cc1)C(=O)O` [Compound 6, formylmerphalan, reference compound], the IC50 is more than 20 µM. With `CC(C)(C)OC(=O)N[C@@H](Cc1ccc(N(CCCl)CCCl)cc1)C(=O)O` [Compound 7, Boc-protected melphalan, reference compound], the IC50 is more than 20 µM. Take `COC(=O)[C@H](Cc1ccc(N(CCCl)CCCl)cc1)NC(=O)CCC(=O)O` [Compound 9, reference compound]: the IC50 is more than 20 µM. As to `COC(=O)[C@H](Cc1ccc(N(CCCl)CCCl)cc1)NC(=O)CCCC(=O)O` [Compound 10, reference compound], the IC50 is more than 20 µM. As for `Cc1ccc2occ(CO)c(=O)c2c1` [Compound 15], the IC50 is more than 20 µM. As to `COc1ccc2occ(CO)c(=O)c2c1` [Compound 16], the IC50 is more than 20 µM. For `Cc1ccc2occ(COC(=O)c3ccc(N(CCCl)CCCl)cc3)c(=O)c2c1` [Compound 17a, (6-Methyl-4-oxo-4H-chromen-3-yl)methyl 4-(bis(2-chloroethyl)amino)benzoate], the IC50 stood at 9.57 ± 0.65 µM. With `Cc1ccc2occ(COC(=O)[C@H](Cc3ccc(N(CCCl)CCCl)cc3)NC=O)c(=O)c2c1` [Compound 17b, (6-Methyl-4-oxo-4H-chromen-3-yl)methyl (S)-3–(4-(bis(2-chloroethyl)amino)phenyl)-2-formamidopropanoate] the figure was 13.2 ± 1.12 µM; with `Cc1ccc2occ(COC(=O)[C@H](Cc3ccc(N(CCCl)CCCl)cc3)NC(=O)OC(C)(C)C)c(=O)c2c1` [Compound 17c, (6-Methyl-4-oxo-4H-chromen-3-yl)methyl (S)-3-(4-(bis(2-chloroethyl)amino)phenyl)-2-((tert-butoxycarbonyl)amino)propanoate], more than 20 µM. Consider `COC(=O)[C@H](Cc1ccc(N(CCCl)CCCl)cc1)NC(=O)CCC(=O)OCc1coc2ccc(C)cc2c1=O` [Compound 17d, (6-Methyl-4-oxo-4H-chromen-3-yl)methyl (S)-4-((3-(4-(bis(2-chloroethyl)amino)phenyl)-1-methoxy-1-oxopropan-2-yl)amino)-4-oxobutanoate], for which the IC50 was 11.4 ± 0.2 µM.

`COC(=O)[C@H](Cc1ccc(N(CCCl)CCCl)cc1)NC(=O)CCCC(=O)OCc1coc2ccc(C)cc2c1=O` [Compound 17e, (6-Methyl-4-oxo-4H-chromen-3-yl)methyl (S)-5-((3-(4-(bis(2-chloroethyl)amino)phenyl)-1-methoxy-1-oxopropan-2-yl)amino)-5-oxopentanoate]: the IC50 amounted to 8.32 ± 0.34 µM. Next, `COc1ccc2occ(COC(=O)c3ccc(N(CCCl)CCCl)cc3)c(=O)c2c1` [Compound 18a, (6-Methoxy-4-oxo-4H-chromen-3-yl)methyl 4-(bis(2-chloroethyl)amino)benzoate]: 9.47 ± 0.38 µM; `COc1ccc2occ(COC(=O)[C@H](Cc3ccc(N(CCCl)CCCl)cc3)NC=O)c(=O)c2c1` [Compound 18b, (6-Methoxy-4-oxo-4H-chromen-3-yl)methyl (S)-3-(4-(bis(2-chloroethyl)amino)phenyl)-2-formamidopropanoate]: 11.5 ± 0.35 µM; `COc1ccc2occ(COC(=O)[C@H](Cc3ccc(N(CCCl)CCCl)cc3)NC(=O)OC(C)(C)C)c(=O)c2c1` [Compound 18c, (6-Methoxy-4-oxo-4H-chromen-3-yl)methyl (S)-3-(4-(bis(2-chloroethyl)amino)phenyl)-2-((tert-butoxycarbonyl)amino)propanoate]: 16.7 ± 0.69 µM. Regarding `COC(=O)[C@H](Cc1ccc(N(CCCl)CCCl)cc1)NC(=O)CCC(=O)OCc1coc2ccc(OC)cc2c1=O` [Compound 18d, (6-Methoxy-4-oxo-4H-chromen-3-yl)methyl (S)-4-((3-(4-(bis(2-chloroethyl)amino)phenyl)-1-methoxy-1-oxopropan-2-yl)amino)-4-oxobutanoate], the IC50 was 12.8 ± 0.32 µM.

For `COC(=O)[C@H](Cc1ccc(N(CCCl)CCCl)cc1)NC(=O)CCCC(=O)OCc1coc2ccc(OC)cc2c1=O` [Compound 18e, (6-Methoxy-4-oxo-4H-chromen-3-yl)methyl (S)-5-((3-(4-(bis(2-chloroethyl)amino)phenyl)-1-methoxy-1-oxopropan-2-yl)amino)-5-oxopentanoate], the IC50 turned out to be 8.98 ± 0.26 µM. For `Cc1ccc2occ(CN)c(=O)c2c1` [Compound 19], the IC50 was more than 20 µM. Regarding `COc1ccc2occ(CN)c(=O)c2c1` [Compound 20], the IC50 is more than 20 µM. With `Cc1ccc2occ(CNC(=O)c3ccc(N(CCCl)CCCl)cc3)c(=O)c2c1` [Compound 21a, 4-(Bis(2-chloroethyl)amino)-N-((6-methyl-4-oxo-4H-chromen-3-yl)methyl)benzamide], the IC50 was 14.9 ± 1.06 µM.

As for `Cc1ccc2occ(CNC(=O)[C@H](Cc3ccc(N(CCCl)CCCl)cc3)NC=O)c(=O)c2c1` [Compound 21b, (S)-3-(4-(bis(2-chloroethyl)amino)phenyl)-2-formamido-N-((6-methyl-4-oxo-4H-chromen-3-yl)methyl)propanamide], the IC50 is 9.42 ± 0.29 µM. Next, `Cc1ccc2occ(CNC(=O)[C@H](Cc3ccc(N(CCCl)CCCl)cc3)NC(=O)OC(C)(C)C)c(=O)c2c1` [Compound 21c, Tert-butyl (S)-(3-(4-(bis(2-chloroethyl)amino)phenyl)-1-(((6-methyl-4-oxo-4H-chromen-3-yl)methyl)amino)-1-oxopropan-2-yl)carbamate]: 12.7 ± 0.48 µM; `COC(=O)[C@H](Cc1ccc(N(CCCl)CCCl)cc1)NC(=O)CCC(=O)NCc1coc2ccc(C)cc2c1=O` [Compound 21d, Methyl (S)-3-(4-(bis(2-chloroethyl)amino)phenyl)-2-(4-(((6-methyl-4-oxo-4H-chromen-3-yl)methyl)amino)-4-oxobutanamido)propanoate]: 6.87 ± 0.19 µM; `COC(=O)[C@H](Cc1ccc(N(CCCl)CCCl)cc1)NC(=O)CCCC(=O)NCc1coc2ccc(C)cc2c1=O` [Compound 21e, Methyl (S)-3-(4-(bis(2-chloroethyl)amino)phenyl)-2–(5-(((6-methyl-4-oxo-4H-chromen-3-yl)methyl)amino)-5-oxopentanamido)propanoate]: 4.47 ± 0.15 µM. As for `COc1ccc2occ(CNC(=O)c3ccc(N(CCCl)CCCl)cc3)c(=O)c2c1` [Compound 22a, 4-(Bis(2-chloroethyl)amino)-N-((6-methoxy-4-oxo-4H-chromen-3-yl)methyl)benzamide], the IC50 is 10.6 ± 0.58 µM. Regarding `COc1ccc2occ(CNC(=O)[C@H](Cc3ccc(N(CCCl)CCCl)cc3)NC=O)c(=O)c2c1` [Compound 22b, (S)-3-(4-(bis(2-chloroethyl)amino)phenyl)-2-formamido-N-((6-methoxy-4-oxo-4H-chromen-3-yl)methyl)propanamide], the IC50 is 4.65 ± 0.22 µM. With `COc1ccc2occ(CNC(=O)[C@H](Cc3ccc(N(CCCl)CCCl)cc3)NC(=O)OC(C)(C)C)c(=O)c2c1` [Compound 22c, Tert-butyl (S)-(3-(4-(bis(2-chloroethyl)amino)phenyl)-1-(((6-methoxy-4-oxo-4H-chromen-3-yl)methyl)amino)-1-oxopropan-2-yl)carbamate] the figure was 9.87 ± 0.36 µM; with `COC(=O)[C@H](Cc1ccc(N(CCCl)CCCl)cc1)NC(=O)CCC(=O)NCc1coc2ccc(OC)cc2c1=O` [Compound 22d, Methyl (S)-3-(4-(bis(2-chloroethyl)amino)phenyl)-2-(4-(((6-methoxy-4-oxo-4H-chromen-3-yl)methyl)amino)-4-oxobutanamido)propanoate], 3.05 ± 0.14 µM.
